Assay results published in PubChem BioAssay (NCI).
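Compound exposure: 48 hours, 5 concentrations, 96-well plates. The concentration for 50% growth inhibition is given as GI50. TGI marks complete inhibition of growth.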

Experiments:
Test in all cases: NCI anticancer screen, dose series, 48 h
MALME-3M melanoma = system: MALME-3M melanoma
SK-MEL-28 melanoma = system: SK-MEL-28 melanoma
NCI-H460 lung = system: NCI-H460 lung
M14 melanoma = system: M14 melanoma
HL-60(TB) leukemia = system: HL-60(TB) leukemia
K-562 leukemia = system: K-562 leukemia
CAKI-1 renal = system: CAKI-1 renal
UACC-257 melanoma = system: UACC-257 melanoma
SN12C renal = system: SN12C renal
NCI-H226 lung = system: NCI-H226 lung

SMILES	TGI (MALME-3M melanoma)	TGI (SK-MEL-28 melanoma)	TGI (NCI-H460 lung)	TGI (M14 melanoma)	TGI (HL-60(TB) leukemia)	TGI (K-562 leukemia)	TGI (CAKI-1 renal)	TGI (UACC-257 melanoma)	TGI (SN12C renal)	GI50 (MALME-3M melanoma)	GI50 (SK-MEL-28 melanoma)	GI50 (NCI-H460 lung)	GI50 (M14 melanoma)	GI50 (K-562 leukemia)	GI50 (NCI-H226 lung)	TGI (NCI-H226 lung)	GI50 (CAKI-1 renal)	GI50 (UACC-257 melanoma)	GI50 (SN12C renal)	GI50 (HL-60(TB) leukemia)
O=C1NC2OCC(O)C(O)C2O1 (configuration not stated)	> 100 µM	> 100 µM	> 100 µM	> 100 µM	> 100 µM	> 100 µM	> 100 µM	> 100 µM	> 100 µM											
CC[CH2][Sn]([Cl])([Cl])[CH2]CC.Oc1ccccc1C=NCCN=Cc1ccccc1O	4.61 µM	21.6 µM	33 µM	19.3 µM		> 100 µM	12.7 µM	17.8 µM	23.8 µM	1.57 µM	8.7 µM	15.6 µM	5.49 µM	2.53 µM	3.13 µM	12.6 µM	2.46 µM	3.61 µM	11.3 µM	
CNc1nc(N)c(N=O)c(Nc2ccc(Br)cc2)n1	> 100 µM	> 100 µM	> 100 µM		> 100 µM	> 100 µM		> 100 µM	> 100 µM											
COc1cc2c(c(OC)c1OC)C(=O)[C@@H]1c3ccc([N+](=O)[O-])cc3C(=O)N(CCCBr)[C@H]21		> 100 µM	62.2 µM	33.5 µM	> 100 µM	> 100 µM	14.2 µM	30.8 µM	29.9 µM		33.1 µM	8.15 µM	12.1 µM	30.6 µM	13.6 µM	49.7 µM	2 µM	5.21 µM	7.67 µM	64.2 µM
COC(=O)C12C3C4C1C1C2C3C41NC(=O)c1csc([C@@H](C[C@H](C(C)C)N(C)C(=O)[C@@H](NC(=O)[C@H]2CCCCN2C)C2CC2)OC(C)=O)n1 (some centres not stated)	> 33.3 µM	> 33.3 µM	> 33.3 µM		0.00777 µM	> 33.3 µM		> 33.3 µM	> 33.3 µM	0.0581 µM		0.0489 µM	0.0253 µM	0.00569 µM	0.395 µM	> 33.3 µM		> 16.6 µM	0.0242 µM	0.00356 µM
COc1ccc(CNc2nc3cc(C(F)(F)F)ccc3nc2C)cc1OC	44.1 µM	> 100 µM	> 100 µM	44.6 µM	50.6 µM	> 100 µM	> 100 µM	42.6 µM	> 100 µM											
COc1ccc2nc3cc(Cl)ccc3c(NCCN)c2c1				3.44 µM	4.67 µM		3.06 µM	33.3 µM					1.82 µM		4.75 µM	> 100 µM	1.65 µM	18.6 µM		2.16 µM
COC1=CC2(C=CC1=O)c1cc(OC)c(OC)cc1CCN2C(=O)c1ccccc1 (configuration not stated)	> 100 µM	> 100 µM		> 100 µM		> 100 µM	> 100 µM	> 100 µM	> 100 µM							> 100 µM				
CC(C)c1ccc(C(c2ccc(OCC(=O)O)cc2)c2ccc(C(C)C)cc(=O)c2O)c(O)c(=O)c1		24.5 µM	8.34 µM	11 µM	15 µM	35.5 µM	18.1 µM	41.6 µM	24.3 µM											
N.N.O=C([O-])P(=O)([O-])[O-].[Na+].[Pt+4]	> 100 µM	> 100 µM	> 100 µM	> 100 µM	> 100 µM	> 100 µM	> 100 µM	> 100 µM	> 100 µM	> 100 µM	> 100 µM	> 100 µM	> 100 µM	> 100 µM			> 100 µM	> 100 µM	> 100 µM	> 100 µM
OC/C=C(\I)CCCOCOCc1ccccc1		> 100 µM	> 100 µM	> 100 µM	35.8 µM	> 100 µM			> 100 µM							> 100 µM				
C/C=C1/C(=C/c2[nH]c(/C=c3\[nH]/c(=C/C4=NC(=O)C(CC)=C4C)c(C)c3CCC(=O)O)c(CCC(=O)O)c2C)NC(=O)C1C (configuration not stated)	> 150 µg/mL	> 150 µg/mL	> 150 µg/mL	> 150 µg/mL	> 150 µg/mL	> 150 µg/mL			> 150 µg/mL	> 150 µg/mL	> 150 µg/mL	> 150 µg/mL	> 150 µg/mL	> 150 µg/mL	> 150 µg/mL	> 150 µg/mL			> 150 µg/mL	> 150 µg/mL
Cn1c2ccccc2c2c3[nH]c(=O)[nH]c(=O)c3c3c4ccccc4n(C)c3c21	6.14 µM	> 100 µM	> 100 µM	> 100 µM	> 100 µM			> 100 µM	> 100 µM	2.03 µM	4.5 µM	3.09 µM	2.43 µM		1.66 µM	5.37 µM		> 100 µM	4.21 µM	> 100 µM
C=C1CC[C@@H]2[C@](C)(COC(C)=O)[C@H](OC(C)=O)CC[C@@]2(C)[C@@H]1CC(Nc1ccc(S(=O)(=O)Nc2ncccn2)cc1)C1=CCOC1=O (some centres not stated)		3.24 µM	4.06 µM	3.98 µM	3.64 µM	11.7 µM	4.04 µM	6.07 µM	1.96 µM		1.69 µM	1.98 µM	1.44 µM	1.73 µM			1.74 µM	2.34 µM	0.43 µM	1.3 µM
CCC(=O)c1c(C(F)(F)F)n([O-])c2ccc(C)cc2[n+]1=O		> 50 µM	18.3 µM	> 50 µM	> 50 µM	> 50 µM	16.2 µM	> 50 µM	19.8 µM		28.2 µM	3.95 µM	15.3 µM	3.4 µM	10.8 µM	> 50 µM	5.78 µM	11.3 µM	7.39 µM	4.82 µM
O=C(/C(=C/c1cccc([N+](=O)[O-])c1)c1ccccc1)c1ccccc1	5.81 µM	8.97 µM	12.6 µM	18.9 µM		15.7 µM	10.2 µM	18.8 µM	79.8 µM	2.32 µM	2.84 µM	3.32 µM	3.45 µM	3.27 µM	3.08 µM	11.5 µM	3.18 µM	4.17 µM	3.54 µM	
COC(=O)c1cc(C)c(C)c2c1NC(=O)CNC2=O		> 100 µM	> 100 µM	> 100 µM	> 100 µM	> 100 µM	> 100 µM	> 100 µM	> 100 µM											
CCCCCCC(=O)C/C(=N/NC(N)=S)C(=O)NC1C2CC3CC(C2)CC1C3 (configuration not stated)	> 100 µM	> 100 µM	> 100 µM	> 100 µM	> 100 µM			> 100 µM	> 100 µM							> 100 µM				
Cc1ccc2[nH]c(C(=O)NN3C(=O)C(C)SC34CCCC(C)C4)c(-c3ccccc3)c2c1 (configuration not stated)	> 100 µM	> 100 µM	> 100 µM	> 100 µM		> 100 µM	> 100 µM	> 100 µM	> 100 µM	69 µM	> 100 µM	83.3 µM	> 100 µM	35.1 µM	> 100 µM	> 100 µM	95.5 µM	66.8 µM	23.5 µM	
CC(C)(C)c1ccc(O)c(CN(Cc2cc(C(C)(C)C)ccc2O)c2ccccc2)c1	29.9 µM	32.4 µM	30.9 µM	28.2 µM		31.9 µM	> 100 µM	12.4 µM	32.1 µM											
CCCCOC(=O)NC(=O)c1cn(C2CCCCC2)c(=O)[nH]c1=O	80.4 µM	> 100 µM	> 100 µM	> 100 µM	> 100 µM	> 100 µM		> 100 µM	> 100 µM							46.3 µM				
COC(=O)c1c(C)[nH]c(/C=C2\N=C(c3ccc[nH]3)C=C2OC)c1C	2.02 µM	2.36 µM	> 100 µM	0.619 µM	2.33 µM	> 27.5 µM		1.52 µM	> 75.4 µM	0.525 µM	0.685 µM	0.147 µM	0.209 µM	0.764 µM	1.66 µM	7.92 µM		0.339 µM	0.389 µM	0.164 µM
C/C(=C1/CCC/C(=C(/C)c2ccccc2)C1=O)c1ccccc1	46.7 µM	> 100 µM	> 100 µM	> 100 µM	27.9 µM	47.1 µM		74.9 µM	> 100 µM							56.5 µM				
CC(C)N1CN(C(C(=O)N[C@@H]2C(=O)N3C2SC(C)(C)C3C(=O)O)c2ccccc2)CSC1=S (some centres not stated)	> 100 µM	> 100 µM	> 100 µM	> 100 µM	> 100 µM	> 100 µM	> 100 µM	> 100 µM	> 100 µM											
CN1C(=O)c2ccccc2NC(=O)C12O[C@@H]2c1cccc(O)c1 (some centres not stated)	> 100 µM	> 100 µM	> 100 µM	> 100 µM	> 100 µM		> 100 µM	> 100 µM	> 100 µM											
